# Results: US20070015830A1, “Use of a retinoid type compound to modulate in vivo the decoupling activity of the protein UCP2” (priority 1997, published 2007)
# Entries after “also recorded” stand apart in the source; their conditions may differ.
# Assays:
# UCP2 protein [1] = target: T1, UCP2 protein (Mus musculus, UniProt P70406); assay: Respiration stimulation factor in mitochondria of recombinant yeast expressing UCP2; assay type: biochemical, mice; settings: for activation of the activity of UCP2 protein: pH not stated
# T1 construct: lacking the untranslated regions 5′ and 3′ is obtained by enzymatic amplification; expressed in transfected cells; host or cells: Saccharomyces cerevisiae diploid W303, vector pYeDP-1/8-10; isolated mitochondria
# T1 sequence (P70406 1-309): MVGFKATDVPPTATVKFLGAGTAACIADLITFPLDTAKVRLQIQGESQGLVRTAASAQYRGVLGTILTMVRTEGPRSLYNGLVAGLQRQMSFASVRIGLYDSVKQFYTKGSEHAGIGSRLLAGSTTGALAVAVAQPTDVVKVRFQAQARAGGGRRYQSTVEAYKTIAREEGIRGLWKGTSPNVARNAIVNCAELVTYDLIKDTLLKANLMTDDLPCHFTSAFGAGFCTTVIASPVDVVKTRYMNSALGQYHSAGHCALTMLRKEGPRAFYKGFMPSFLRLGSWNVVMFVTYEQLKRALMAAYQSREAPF
# From the text: The effect of this type of compounds particularly on the activity of UCP2 protein, has been shown on a yeast model. The test consists in constructing yeast layers of recombinant Saccharomyces cervisiae yeasts being capable of expressing UCP2 protein, extracting UCP2 proteins from the mitochondria and measuring the activity of UCP2 protein in the presence or in the absence of retinoic acid. In the model which has been retained, the uncoupling activity of the UCP2 proteins is quantitatively measured by means of the factor of stimulation of respiration.
# (§1) This factor corresponds to the ratio of respiration and baseline respiration, measured or in the absence of retinoic acid (when measurements are made at a constant pH but varying the concentration of retinoic acid) or at pH 6.8 (when measurements are made at a given concentration of retinoic acid, but varying the pH).
# (§2) Respiration is determined by measurement of the quantity of consumed oxygen, expressed in nanomoles of oxygen per minute and milligram of mitochondrial proteins, the consumption of oxygen being directly linked to the quantity of substrate having been consumed by the mitochondria (in calories).
# The cDNA of UCP2 proteins of mice (C. Fleury et al. (1997) Uncoupling protein-2: A novel gene linked to obesity and hyperinsulinaemia, Nature Genetics, 15, 269-272) lacking the untranslated regions 5′ and 3′ is obtained by enzymatic amplification with the following oligonucleotides:
# The resulting DNA product is repaired with a Kleenow enzyme, thereafter cut with EcoRl and Sacl. This forces donation in the pYeDP-1/8-10 vector. In each case, the insertion of cDNA encoding for UCP2 protein in the pYeDP vector has been sequenced so as to verify that the encoding sequence had the expected properties. The UCP2-expressing pYeDP-YCP vector is introduced in a diploid W303 strain of Saccharomyces cervisiae yeast ([…]; ade2-10; his3-11,15; leu2-3,112; ura3-1; canl-100; trp-) by electroporation and the transformants are selected for their […].
# A process derived from that described by Guérin et al. (Guérin B., Labbe P. et Somlo, M. (1979) Methods Enzymol; 55, 149-159) is used. 36 hours before the extraction of the mitochondria a pre-culture in SP-medium (0.67% o nitrogenated yeast base, 0.1% KH2PO4, 0.12% (NH4)2SO4, 0.1% glucose, 2% lactic acid, 0.1% casaminoacids, 20 mg/l triptophane, 40 mg/1 adenine of pH 4.5), 10 or 12 hours before the extraction, a dilution in SP-medium (2% galactose, 0.67% nitrogenated yeast base, 0.1% casaaminoacids, 20 mg/l triptophane and […] adenine, at an optical density of 0.35-0.4).
# Protoplasts are prepared by enzymatic digestion with cytohelicase and the mitochondria are isolated by differential centrifugation after homogenization of the protoplasts obtained by enzymatic digestion of the cell wall.
# Only quantitative measurement of mitochondrial respiration has been made for UCP2. This measurement is made at 20° C. in an oxygen-electrode chamber (Clark electrode) commercialized by the company HANSATECH. The incubation medium contains 0.65M mannitol, […] Tris/Maleate, 0.5 mM EGTA, 2 mM MgC12, 10 mMK2hpo4, 1 mg/ml ([…]) albumin pH6.8).
# Mitochondria concentration is 0.15 mg/ml. NADH (3 mM) is used as substrate as mitochondria of Saccharomyces cervisiae are capable of oxidizing NADH of external origin).
# The tests are performed varying any of the pH or the terinoïc acid concentration in the medium. The concentrations of free retinoic acid are esteemed up to some tens of nanomars (determined by fixing the molar ratio retinoic acid:albumin). The concentration of albumin is 0.1 mg/ml […]) in the respiration buffer and the tested pH are respectively 6.8; 7.1; 7.3 or 7.5. The further components of the buffer are identical to those in example 1 and in the same concentrations.
# UCP2 protein [2] = target: T1, UCP2 protein; assay: as above; assay type: biochemical, mice; settings: FIG. 5; molar ratio acid:albumin 3:1 and 4:1
# [3] = tested on: yeast mitochondria lacking UCP proteins; assay: Membrane potential of yeast mitochondria lacking UCP proteins (control); assay type: biochemical, Saccharomyces cervisiae; settings: FIG. 6a
# From the text: FIG. 6 evidences the variation in the membrane potentials and respiration of mitochondria in yeasts (reflecting the uncoupling activity of UCP1 protein) under the effect of the retinoic acid. The upper curve reflects oxygen consumption (expressed in nanomoles of oxygen per minute per milligram of mitochondrial proteins) and the lower curve the membrane potentials. FIG. 6a corresponds to measurements made in yeast mitochondria lacking UCP proteins and FIG. 6b corresponds to measurements made in yeast mitochondria wherein UCP1 protein is expressed. • N: designates the addition of NADH (respitation substrate) • R: designates the addition of retinoic acid (respectively at a molar ratio retinoic acid:albumin of 2:1 and 4:1) • G: designates the addition of 1 millimolar guanosine diphosphate (an inhibitor of UCP1 protein).
# UCP1 protein [4] = target: T2, UCP1 protein (Rattus norvegicus, UniProt P04633); assay: Respiration stimulation factor in mitochondria of recombinant yeast expressing UCP1; assay type: biochemical
# T2 construct: The cDNA of the UCP1 protein which lacks the untranslated regions at 3′ and 5′ is obtained by enzymatic amplification; expressed in transfected cells; host or cells: Saccharomyces cerevisiae, vector pYeDP-1/8-10 (plasmid pYeDP-UCP+); isolated mitochondria
# T2 sequence (P04633 1-307): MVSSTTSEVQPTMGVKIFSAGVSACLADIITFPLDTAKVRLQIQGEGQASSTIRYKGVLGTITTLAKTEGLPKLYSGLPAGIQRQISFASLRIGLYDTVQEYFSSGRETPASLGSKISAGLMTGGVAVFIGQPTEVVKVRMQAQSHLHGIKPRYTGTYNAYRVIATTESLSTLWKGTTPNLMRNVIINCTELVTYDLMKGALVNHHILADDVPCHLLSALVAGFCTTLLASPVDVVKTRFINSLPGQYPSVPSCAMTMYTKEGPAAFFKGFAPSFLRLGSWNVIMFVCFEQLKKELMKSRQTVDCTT
# Procedure: as §1, §2
# FIG. 2 represents a curve of response of yeast mitochondria to retinoic acid. In the abscissa, there appears the molar ratio of retinoic acid/albumin (albumin concentration: 1 micromole within the medium); in the ordinate, there appears the factor of stimulation of the baseline respiration. FIG. 2a was obtained at pH 6.8 and figure at pH 7.3.
# The construction of the expression vectors, the recombinant Saccharomyces cervisiae strains, the preparation of the mitochondria and the measurement of the activity of the UCP1 protein are described in the publication of Arechaga et al. already cited in example 1. […]
# UCP1 protein [5] = target: T2, UCP1 protein; assay: Membrane potential of yeast mitochondria expressing UCP1; assay type: biochemical; settings: FIG. 6b, molar ratio retinoic acid:albumin 2:1 and 4:1
# From the text: There is also a qualitative method for determining the uncoupling activity of an UCP protein. It is the measurement of the mitochondrial membrane potential the reduction of which is an evidence of the decrease of the quality of the recovery of chemical energy at the level of the mitochondria. Activation of an uncoupling protein is reflected by de decrease of the membrane potential followed by an acceleration of the respiration.
# FIG. 6 evidences the variation in the membrane potentials and respiration of mitochondria in yeasts (reflecting the uncoupling activity of UCP1 protein) under the effect of the retinoic acid. The upper curve reflects oxygen consumption (expressed in nanomoles of oxygen per minute per milligram of mitochondrial proteins) and the lower curve the membrane potentials. […]
# This activity may be measured qualitatively or quantitatively, with the help of the parameters: • qualitatively: • The mitochondrial membrane potential; the increase of the activity of an uncoupling protein is reflected by a reduction of the membrane potential and a resulting increase in oxygen consumption. In turn, the increase corresponds to an increase in dissipation of energy. • quantitatively: • mitochondrial respiration (oxygen consumption) which is linked directly to the quantity of substrate consumed by the mitochondria. […]
smiles,measurement,setting,value
CCCCC/C=C\C/C=C\C/C=C\C/C=C\CCCC(=O)O [arachidonic acid],activation of the activity of UCP2 protein,UCP2 protein [1],No activation
CCCCCCCCCCCCCCCC(=O)O [palmitic acid],change of UCP2 activity with the pH and the increase of the concentration of palmitic acid,UCP2 protein [2],slight increase
same,activation of the activity of UCP2 protein,UCP2 protein [1],does not have any effect; also recorded: not the case
O=C(O)c1ccccc1O [salicylic acid],activation of the activity of UCP2 protein,UCP2 protein [1],No activation
"CC1=C(/C=C/C(C)=C/C=C/C(C)=C/C(=O)O)C(C)(C)CCC1 [retinoic acid, all-trans retinoic acid]",effect on mitochondrial membrane potential,[3],not observed
same,change of the activity of UCP2 protein when the concentration of retinoic acid increases,"UCP2 protein [1]; molar ratio retinoic acid/albumin 3:1 vs 4:1, FIGS. 4a and 4b",slight increase
same,increase of the activity of UCP2 (respiration stimulation factor),"UCP2 protein [1]; pH 6.8, FIG. 2a",no notable increase; also recorded: not the case
same,increase of the activity of UCP2 (respiration stimulation factor),"UCP2 protein [1]; pH 7.3, FIG. 2b",the increase is very sensitive
same,activation of the activity of UCP2 protein,UCP2 protein [1],activates the dissipation of energy by UCP2
same,response of UCP1 protein (respiration stimulation factor),"UCP1 protein [4]; pH 6.8, FIG. 2a",responds
same,response / uncoupling activity of UCP1 protein,"UCP1 protein [4]; pH not stated, FIG. 3a for palmitic acid",capable of increasing the uncoupling activity
same,effect on mitochondrial membrane potential,UCP1 protein [5],induces a reduction of the membrane potential
CC1=C(/C=C/C(C)=C/C=C/C(C)=C/CO)C(C)(C)CCC1 [retinol],activation of the activity of UCP2 protein,UCP2 protein [1],No activation
CC1=CC(=O)CC(C)(C)C1(O)/C=C/C(C)=C\C(=O)O (centres unmarked) [abscissic acid],activation of the activity of UCP2 protein,UCP2 protein [1],No activation
